# In patent US20210309669A1, “Heterocyclic Spiro Compounds As MAGL Inhibitors” (Pfizer Inc., priority 2018, published 2021):
# Test: Mouse subcutaneous neuropharmacokinetics study
# Format: in vivo, Male C57Bl6 mice
# Settings: male, C57Bl6, mouse, brain (cerebellum homogenate) and plasma, sc, subcutaneous dose of 1 mg/kg, read-out: Mouse Cb,u/Cp,u
# Description: The neuropharmacokinetics studies in mouse were conducted at Wuxi (Shanghai, China) with bioanalysis conducted at BioDuro (Beijing, China) with the exception of the Comparative-compound 3, which bioanalysis was conducted at Wuxi. All in vivo studies were conducted in accordance with regulations and established guidelines using protocols reviewed and approved by the Pfizer Worldwide Research and Development (WRD, or other) Institutional Animal Care and Use Committee.
# Male C57Bl6 mice were maintained on a 12-h light/dark cycle in a temperature- and humidity-controlled environment with free access to food and water. The test compounds (Examples 1 and 2 and Comparative Compounds 1-3) were administered as a subcutaneous dose of 1 mg/kg which was delivered in a dose volume of 10 mL/kg. The dose solution for all compounds was formulated in 5% DMSO/5% cremophor/90% saline. Blood and brain samples were collected at 0.5, 1, 2, 4, 8, 12, and 24 h post-dose (n=3 per time point). Blood samples were collected into tubes containing sodium fluoride and 4-(2-aminoethyl)benzenesulfonyl fluoride hydrochloride (AEBSF; final concentration 2 mg/mL) to inhibit hydrolase activity and placed on wet ice. Following centrifugation to afford plasma, the samples were transferred to polypropylene tubes and stored frozen at −20° C. to −80° C. until analysis. Immediately following blood collection the mice were euthanized by cervical dislocation and the brains were removed. The cerebellum was immediately frozen in liquid nitrogen and stored at −80° C. until analysis.
# Cerebellum samples were thawed, diluted 1:4 (w/v) with water, and homogenized using an H-speed dispersator. Standards and controls were prepared in a similar manner using a brain homogenate prepared from untreated animals. The plasma standard curves were generated with species specific plasma. All plasma and brain homogenate samples were quantified via LC/MS-MS using multiple reaction monitoring with non-validated methods.
# Equilibrium dialysis using standard procedures [See Di et al., “Species independence in brain tissue binding using brain homogenates”; Drug Metab Dispos 39:1270-1277, 2011) were used for determination of the unbound fraction of the test compounds (Examples 1 and 2 and Comparative Compounds 1-3) in mouse plasma (fu,p; see Di et al., “impact of recovery on fraction unbound using equilibrium dialysis”; J Pharm Sci 101:1327-1335, 2012) and unbound fraction in rat brain homogenate (fu,b; see Di et al., “Species independence in brain tissue binding using brain homogenates”; Drug Metab Dispos 39:1270-1277, 2011). The determination of the unbound fraction in plasma also included the addition of AEBSF at a final concentration of 2 mg/mL to the incubation.
# The pharmacokinetic parameters were computed by non-compartmental analysis using Watson Bioanalytical LIMS version 7.5. The AUC values were calculated using the linear trapezoidal method for both brain and plasma. Measured total plasma (Cp) and brain (Cb; assuming brain tissue density of 1 g/mL) concentrations were converted to unbound (free) values using the matrix specific binding factor (fu, p or fu,b) to determine free plasma (Cp,u) and free brain (Cb,u) values. All neurocompartmental ratios (Cb,u/Cp,u) were calculated through use of AUC values with the exception of Comparative Compounds 1 and 2 which used the mean of individual animal values due to insufficient data to calculate an AUC value.
row,Structure (SMILES),"Kp,uu (unbound brain/unbound plasma ratio)"
1,"O=C(OC(C(F)(F)F)C(F)(F)F)N1CCC2(CC1)C[C@@H](NS(=O)(=O)CC1CC1)CO2 [Example 1, 1,1,1,3,3,3-Hexafluoropropan-2-yl (3R)-3-{[(cyclopropylmethyl)sulfonyl]amino}-1-oxa-8-azaspiro[4.5]decane-8-carboxylate]",1
2,"O=C(OC(C(F)(F)F)C(F)(F)F)N1CCC2(CC1)C[C@@H](NS(=O)(=O)C1CC1)CO2 [Example 2, 1,1,1,3,3,3-Hexafluoropropan-2-yl (3R)-3-[(cyclopropylsulfonyl)amino]-1-oxa-8-azaspiro[4.5]decane-8-carboxylate]",0.8
